14 molecules from PubChem BioAssay AID248 (DTP/NCI, 2004) can be followed below.

The experiment deals with L1210 leukemia ip in BDF1 mice, survival T/C. Put plainly: NCI In Vivo Anticancer Drug Screen. Data for tumor model L1210 Leukemia (intraperitoneal) in B6D2F1 (BDF1) mice. The note with it: endpoint: mean survival time, higher = longer survival. In a few lines: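 Antitumor effect is assessed in tumor-bearing animals. Survival in the compound arm is compared with a vehicle-dosed control arm and expressed as their quotient.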

[1] abbreviates: dose: 100.0 mg/kg/injection, schedule: Q01DX009 (ip), vehicle: saline.
Where [2] appears, read: dose: 200.0 mg/kg/injection, schedule: Q01DX001 (ip), vehicle: saline.
Where [3] appears, read: dose: 200.0 mg/kg/injection, schedule: Q04DX003 (ip), vehicle: Klucel (hydroxypropylcellulose) (HPC).
Where [4] appears, read: dose: 200.0 mg/kg/injection, schedule: Q04DX003 (ip), vehicle: saline with Tween-80.
[5] abbreviates: dose: 400.0 mg/kg/injection, schedule: Q01DX009 (ip), vehicle: saline.
Where [6] appears, read: dose: 100.0 mg/kg/injection, schedule: Q04DX003 (ip), vehicle: Klucel (hydroxypropylcellulose) (HPC).
The mark [7] stands for this setting: dose: 400.0 mg/kg/injection, schedule: Q04DX003 (ip), vehicle: Klucel (hydroxypropylcellulose) (HPC).
Where [8] appears, read: dose: 100.0 mg/kg/injection, schedule: Q01DX009 (ip), vehicle: Klucel (hydroxypropylcellulose) (HPC).
Setting [9] is: dose: 100.0 mg/kg/injection, schedule: Q04DX002 (ip), vehicle: Klucel (hydroxypropylcellulose) (HPC).
Setting [10] is: dose: 200.0 mg/kg/injection, schedule: Q01DX009 (ip), vehicle: Klucel (hydroxypropylcellulose) (HPC).
[11] abbreviates: dose: 200.0 mg/kg/injection, schedule: Q04DX002 (ip), vehicle: Klucel (hydroxypropylcellulose) (HPC).
Setting [12] is: dose: 400.0 mg/kg/injection, schedule: Q01DX009 (ip), vehicle: Klucel (hydroxypropylcellulose) (HPC).
The mark [13] stands for this setting: dose: 100.0 mg/kg/injection, schedule: Q04DX003 (ip), vehicle: saline with Tween-80.
[14] abbreviates: dose: 400.0 mg/kg/injection, schedule: Q04DX003 (ip), vehicle: saline with Tween-80.

Each structure is given as a SMILES string. Values joined by “and” are separate entries in the source; they are usually repeats but may differ in a detail not shown here. Equal values may be shown once. Inconclusive results and toxic doses are left out.

As to `CCSc1nc(Cl)cc(Sc2nc(N)nc3nc[nH]c23)n1`, the T/C runs as follows: (dose: 10.0 mg/kg/injection, schedule: Q01DX009 (ip), vehicle: saline) 104 % of control; (dose: 12.0 mg/kg/injection, schedule: Q01DX001 (ip), vehicle: saline) 100 % of control; (dose: 15.0 mg/kg/injection, schedule: Q04DX003 (ip), vehicle: saline) 116 % of control; (dose: 19.0 mg/kg/injection, schedule: Q01DX001 (ip), vehicle: saline) 119 % of control; (dose: 20.0 mg/kg/injection, schedule: Q01DX009 (ip), vehicle: saline) 115 % of control; (dose: 30.0 mg/kg/injection, schedule: Q04DX003 (ip), vehicle: saline) 122 % of control. For the same molecule, the T/C (dose: 45.0 mg/kg/injection, schedule: Q01DX001 (ip), vehicle: saline) is 123 % of control; the T/C (dose: 50.0 mg/kg/injection, schedule: Q04DX003 (ip), vehicle: saline) was 118 % of control; the T/C (dose: 66.0 mg/kg/injection, schedule: Q01DX001 (ip), vehicle: saline) is 114 % of control and 123 % of control; the T/C under setting [1] was 156 % of control; the T/C (dose: 100.0 mg/kg/injection, schedule: Q01DX Z (ip), vehicle: methylcellulose (MC)) is 115 % of control; the T/C (dose: 120.0 mg/kg/injection, schedule: Q04DX003 (ip), vehicle: saline) is 151 % of control. Also, the T/C is 175 % of control (dose: 132.0 mg/kg/injection, schedule: Q04DX003 (ip), vehicle: saline with Tween-80); 100 % of control under setting [2]; 122 % of control (dose: 200.0 mg/kg/injection, schedule: Q01DX Z (ip), vehicle: methylcellulose (MC)); 158 % of control under setting [3]; 200 % of control under setting [4]; 193 % of control (dose: 240.0 mg/kg/injection, schedule: Q01DX001 (ip), vehicle: saline). The T/C runs as follows: (dose: 240.0 mg/kg/injection, schedule: Q04DX003 (ip), vehicle: saline) 204 % of control; (dose: 300.0 mg/kg/injection, schedule: Q04DX003 (ip), vehicle: Klucel (hydroxypropylcellulose) (HPC)) 168 % of control; (dose: 300.0 mg/kg/injection, schedule: Q04DX003 (ip), vehicle: saline with Tween-80) 180 % of control; (dose: 360.0 mg/kg/injection, schedule: Q01DX001 (ip), vehicle: saline) 205 % of control; (dose: 360.0 mg/kg/injection, schedule: Q04DX003 (ip), vehicle: saline) 188 % of control; under setting [5], 108 % of control. The T/C (dose: 400.0 mg/kg/injection, schedule: Q01DX Z (ip), vehicle: carboxymethylcellulose (CMC)) was 102 % of control; the T/C (dose: 600.0 mg/kg/injection, schedule: Q01DX009 (ip), vehicle: saline) was 121 % of control; the T/C (dose: 800.0 mg/kg/injection, schedule: Q01DX Z (ip), vehicle: carboxymethylcellulose (CMC)) was 90 % of control; the T/C (dose: 810.0 mg/kg/injection, schedule: Q01DX001 (ip), vehicle: saline) was 124 % of control; the T/C (dose: 810.0 mg/kg/injection, schedule: Q04DX003 (ip), vehicle: saline) was 119 % of control.
For the molecule `Clc1cc(Cl)c(/C=C/c2c(Cl)cc(Cl)cc2Cl)c(Cl)c1`, the T/C was 98 % of control under setting [6], 93 % of control under setting [3] and 95 % of control under setting [7].
Consider `c1ccc(-c2c[n+]3cc4ccccc4cc3cn2)cc1`, for which the T/C was 91 % of control under setting [1]; 100 % of control (dose: 100.0 mg/kg/injection, schedule: Q04DX003 (ip), vehicle: saline); 96 % of control (dose: 200.0 mg/kg/injection, schedule: Q01DX009 (ip), vehicle: saline); 96 % of control (dose: 200.0 mg/kg/injection, schedule: Q04DX003 (ip), vehicle: saline); 97 % of control under setting [5]; 98 % of control (dose: 400.0 mg/kg/injection, schedule: Q04DX003 (ip), vehicle: saline).
Consider `O=C(COCC(=O)N/N=C/c1ccccc1O)N/N=C/c1ccccc1O`, for which the T/C was 93 % of control (dose: 100.0 mg/kg/injection, schedule: Q01DX001 (ip), vehicle: Klucel (hydroxypropylcellulose) (HPC)); 98 % of control and 103 % of control under setting [8]; 109 % of control under setting [9]; 110 % of control under setting [6]; 92 % of control (dose: 200.0 mg/kg/injection, schedule: Q01DX001 (ip), vehicle: Klucel (hydroxypropylcellulose) (HPC)); 94 % of control and 98 % of control under setting [10]. For the same molecule, the T/C reads like this: under setting [11], 91 % of control; under setting [3], 108 % of control; (dose: 400.0 mg/kg/injection, schedule: Q01DX001 (ip), vehicle: Klucel (hydroxypropylcellulose) (HPC)) 91 % of control; under setting [12], 95 % of control and 87 % of control; (dose: 400.0 mg/kg/injection, schedule: Q04DX002 (ip), vehicle: Klucel (hydroxypropylcellulose) (HPC)) 100 % of control; under setting [7], 105 % of control.
Regarding `NC1(C(=O)O)CC(O)(c2ccccc2)C(O)(c2ccccc2)C1` (stereo unspecified), the T/C was 88 % of control (dose: 100.0 mg/kg/injection, schedule: Q01DX001 (ip), vehicle: saline) and 93 % of control under setting [2].
Regarding `O=C(O)c1cc(Cl)c(Br)c(Cl)c1`, the T/C was 100 % of control under setting [9] and 107 % of control under setting [11].
In the case of `ClC1OC(Cl)(Cl)C(Cl)(Cl)OC1(Cl)Cl` (stereo unspecified), the T/C is, setting by setting: under setting [8], 103 % of control; under setting [6], 107 % of control; under setting [10], 93 % of control; under setting [3], 94 % of control; under setting [12], 101 % of control; under setting [7], 96 % of control.
For the molecule `CN1CCOC1=Nc1ccc(Cl)cc1`, the T/C under setting [13] was 94 % of control, the T/C under setting [4] was 99 % of control and the T/C under setting [14] was 88 % of control.
With `CC(C)C1CCC2(CC1)CC(=O)N(CCC[N+](C)(C)C)C(=O)C2`, the T/C (dose: 50.0 mg/kg/injection, schedule: Q01DX001 (ip), vehicle: carboxymethylcellulose (CMC)) is 96 % of control.
As to `CCCC(CCC)CCCCC(CCC)CCC`, the T/C by setting is: (dose: 75.0 mg/kg/injection, schedule: Q01DX001 (ip), vehicle: saline) 96 % of control; (dose: 150.0 mg/kg/injection, schedule: Q01DX001 (ip), vehicle: saline) 96 % of control; (dose: 300.0 mg/kg/injection, schedule: Q01DX001 (ip), vehicle: saline) 94 % of control.
On to `O=C(O)C1CC(c2ccccc2)OC1=O` (stereo unspecified), for which the T/C runs as follows: (dose: 100.0 mg/kg/injection, schedule: Q01DX009 (ip), vehicle: gum acacia) 101 % of control; (dose: 100.0 mg/kg/injection, schedule: Q04DX003 (ip), vehicle: gum acacia) 98 % of control; (dose: 200.0 mg/kg/injection, schedule: Q01DX009 (ip), vehicle: gum acacia) 89 % of control; (dose: 200.0 mg/kg/injection, schedule: Q04DX003 (ip), vehicle: gum acacia) 93 % of control; (dose: 400.0 mg/kg/injection, schedule: Q01DX009 (ip), vehicle: gum acacia) 106 % of control; (dose: 400.0 mg/kg/injection, schedule: Q04DX003 (ip), vehicle: gum acacia) 91 % of control.
As for `C[N+](C)(C)C.Cl[Br-]Br`, the T/C is 95 % of control (dose: 6.25 mg/kg/injection, schedule: Q01DX009 (ip), vehicle: alcohol) and 89 % of control (dose: 12.5 mg/kg/injection, schedule: Q01DX009 (ip), vehicle: alcohol).
For `O=C1CC2=CCCCc3cccc1c32`, the T/C is 93 % of control (dose: 100.0 mg/kg/injection, schedule: Q01DX001 (ip), vehicle: carboxymethylcellulose (CMC)); 93 % of control (dose: 200.0 mg/kg/injection, schedule: Q01DX001 (ip), vehicle: carboxymethylcellulose (CMC)); 93 % of control (dose: 400.0 mg/kg/injection, schedule: Q01DX001 (ip), vehicle: carboxymethylcellulose (CMC)).
In the case of `NC(=O)C1OC(CO)C(O)C1O` (stereo unspecified), the T/C by setting is: under setting [13], 105 % of control; under setting [4], 94 % of control; under setting [14], 94 % of control.
